The numbers were not newly measured in patent US20250120913A1, “STABLE QUERCETIN NANOSUSPENSIONS” (Sirona Biosciences Inc., priority 2023, published 2025), which cites them from elsewhere.

The structures appear in SMILES notation.

For the data set the following is noted: depending on the pH level.

As a reminder, the aqueous solubility is the concentration that dissolves in the medium under given conditions. Regarding `O=c1c(O)c(-c2ccc(O)c(O)c2)oc2cc(O)cc(O)c12` [Quercetin], the aqueous solubility is 1.5 to 12.5 µg/mL.
